We go through 19 compounds from PubChem BioAssay (NCI).

Several values for one entry are separate records, joined by “and”; a condition that tells them apart may be missing. Equal values may be shown once.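 Assay format: 96-well plates, 48-hour exposure. GI50 is the concentration that inhibits growth by half. TGI: concentration producing complete growth inhibition.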

The first test relates to SNB-75 CNS. In words: NCI anticancer screen, dose series, 48 h.
Regarding `C#Cc1cnc(=O)n(C2CC(O)C(CO)O2)c1` (configuration not stated), the GI50 is above 100 µM and the TGI was above 100 µM.
Consider `COc1c(C2CC(=O)Nc3c2cnn3Cc2ccco2)cc2c(c1OC)OCO2` (configuration not stated), for which the GI50 was 0.295 µM and the TGI is above 100 µM.
The like results for `O=C(c1cccs1)c1c(C(F)(F)F)n([O-])c2ccccc2[n+]1=O` were, in that order, 2.94 µM and 9.05 µM.
Consider `CC(CO)(CO)N=Cc1cc(I)cc(I)c1O`, for which the TGI was found to be 34.8 µM.
With `CCN1CCN(c2nc(NCCCNc3ccnc4cc(Cl)ccc34)c3ccccc3n2)CC1`, the GI50 is 1.78 µM and the TGI was found to be 6.88 µM.
For the compound `CC1(C)N=C(N)N=C(N)N1c1ccc(CCCCc2ccc(S(=O)(=O)F)cc2)cc1`, the GI50 was 2.16 µM and the TGI came out at 20.2 µM.
The like results for `NC(N)=N/N=C(/c1ccccc1)c1ccc(F)cc1` were, in that order, 0.183 µM and 3.09 µM.
The corresponding values for `COc1cc(C(=O)NC2c3ccccc3-c3ccccc32)c(N)cc1OCc1ccccc1` are 7.84 µM and 30.7 µM.
The corresponding values for `Oc1ccccc1/C=N/Nc1ccc2ccccc2n1` are 2.01 µM and 20.4 µM.
With `COc1ccc(C(=S)N2CCN(c3cccc(Cl)c3)CC2)cc1`, the GI50 was 45.1 µM and the TGI is above 100 µM.
In turn, `CSc1nc(SC)c2c(CN=[N+]=[N-])c(Br)n(Cc3ccccc3)c2n1` came in with a TGI above 100 µM.
For the compound `Clc1ccccc1C(c1ccccc1)(c1ccccc1)n1ccnc1`, the GI50 is 2.14 µM; the TGI was 8.72 µM and 35.5 µM.
Regarding `CCCCCCCCCCCCCC(=S)NCCCC[C@H](NC(=O)OCc1ccccc1)C(=O)Nc1ccccc1`, the GI50 was 3.85 µM and the TGI was above 100 µM.
Turning to `COc1ccc(C(=O)Nc2ncc(Cc3ccc(Cl)cc3)s2)cc1`, the GI50 was 0.0424 µM and the TGI is above 100 µM.
Take `C=C1CCC2C(/C=C(\C)CCC1O)OC(=O)C2C` (configuration not stated): the GI50 was above 100 µM and the TGI was above 100 µM.
In the case of `CC(C)(C)c1cc(O)c(O)c(C(C)(C)C)c1`, the GI50 is 4.86 µM and the TGI was 19 µM.
The corresponding values for `CN1CCN(CC#Cc2cccc(C(=O)c3cnn(-c4ccc(F)cc4)c3N)c2)CC1` are above 25 µM and above 25 µM.
The like results for `COc1cccc(/C=C/C(=O)c2cc3c(N)c(C(=O)Nc4ccccc4C)sc3nc2C)c1` were, in that order, 1.05 µM and 3.15 µM.
The like results for `COc1ccc(NC(=O)Nc2n[nH]c3ccccc23)cc1` were, in that order, above 100 µM and above 100 µM.

In another test the test system is SF-295 CNS. Put plainly: NCI anticancer screen, dose series, 48 h.
In the case of `C#Cc1cnc(=O)n(C2CC(O)C(CO)O2)c1` (configuration not stated), the GI50 is above 100 µM and the TGI is above 100 µM.
On to `COc1c(C2CC(=O)Nc3c2cnn3Cc2ccco2)cc2c(c1OC)OCO2` (configuration not stated), for which the GI50 is 0.573 µM and the TGI was above 30.5 µM.
In the case of `O=C(c1cccs1)c1c(C(F)(F)F)n([O-])c2ccccc2[n+]1=O`, the GI50 was 0.941 µM and the TGI turned out to be 2.43 µM.
In turn, `CC(CO)(CO)N=Cc1cc(I)cc(I)c1O` showed a TGI of 47.3 µM.
For the compound `CCN1CCN(c2nc(NCCCNc3ccnc4cc(Cl)ccc34)c3ccccc3n2)CC1`, the GI50 is 1.66 µM and the TGI is 3.37 µM.
The like results for `CC1(C)N=C(N)N=C(N)N1c1ccc(CCCCc2ccc(S(=O)(=O)F)cc2)cc1` were, in that order, 5.71 µM and above 54.2 µM.
The like results for `NC(N)=N/N=C(/c1ccccc1)c1ccc(F)cc1` were, in that order, 0.243 µM and 2.25 µM.
The corresponding values for `COc1cc(C(=O)NC2c3ccccc3-c3ccccc32)c(N)cc1OCc1ccccc1` are 15.4 µM and 41 µM.
For `Oc1ccccc1/C=N/Nc1ccc2ccccc2n1`, the GI50 was 4.44 µM and the TGI is above 100 µM.
The corresponding values for `COc1ccc(C(=S)N2CCN(c3cccc(Cl)c3)CC2)cc1` are 95.9 µM and above 100 µM.
For the compound `CSc1nc(SC)c2c(CN=[N+]=[N-])c(Br)n(Cc3ccccc3)c2n1`, the TGI is above 100 µM.
Turning to `Clc1ccccc1C(c1ccccc1)(c1ccccc1)n1ccnc1`, the GI50 is 1.94 µM; the TGI is 9.67 µM and 23.7 µM.
For `CCCCCCCCCCCCCC(=S)NCCCC[C@H](NC(=O)OCc1ccccc1)C(=O)Nc1ccccc1`, the GI50 was 3.4 µM and the TGI was determined as 72.1 µM.
Regarding `COc1ccc(C(=O)Nc2ncc(Cc3ccc(Cl)cc3)s2)cc1`, the GI50 was 0.0561 µM and the TGI came to 1.97 µM.
As to `C=C1CCC2C(/C=C(\C)CCC1O)OC(=O)C2C` (configuration not stated), the GI50 was above 100 µM and the TGI was above 100 µM.
On to `CC(C)(C)c1cc(O)c(O)c(C(C)(C)C)c1`, for which the GI50 is 3.53 µM and the TGI was determined as 14.4 µM.
The corresponding values for `CN1CCN(CC#Cc2cccc(C(=O)c3cnn(-c4ccc(F)cc4)c3N)c2)CC1` are above 25 µM and above 25 µM.
`COc1cccc(/C=C/C(=O)c2cc3c(N)c(C(=O)Nc4ccccc4C)sc3nc2C)c1`: the GI50 is 2.26 µM and the TGI came to 15.9 µM.
The corresponding values for `COc1ccc(NC(=O)Nc2n[nH]c3ccccc23)cc1` are above 100 µM and above 100 µM.

For a further test, the system named is RPMI-8226 leukemia. Put plainly: NCI anticancer screen, dose series, 48 h.
Turning to `C#Cc1cnc(=O)n(C2CC(O)C(CO)O2)c1` (configuration not stated), the GI50 was 8.51 µM and the TGI was above 22.8 µM.
The corresponding values for `COc1c(C2CC(=O)Nc3c2cnn3Cc2ccco2)cc2c(c1OC)OCO2` (configuration not stated) are 0.396 µM and above 56.5 µM.
The corresponding values for `O=C(c1cccs1)c1c(C(F)(F)F)n([O-])c2ccccc2[n+]1=O` are 0.613 µM and 10.5 µM.
For the compound `CC(CO)(CO)N=Cc1cc(I)cc(I)c1O`, the TGI is above 100 µM.
`CCN1CCN(c2nc(NCCCNc3ccnc4cc(Cl)ccc34)c3ccccc3n2)CC1`: the GI50 was 2.12 µM and the TGI was determined as 6.04 µM.
The corresponding values for `CC1(C)N=C(N)N=C(N)N1c1ccc(CCCCc2ccc(S(=O)(=O)F)cc2)cc1` are 0.522 µM and 10.8 µM.
The like results for `NC(N)=N/N=C(/c1ccccc1)c1ccc(F)cc1` were, in that order, 0.558 µM and 21.6 µM.
The like results for `COc1cc(C(=O)NC2c3ccccc3-c3ccccc32)c(N)cc1OCc1ccccc1` were, in that order, 97.5 µM and above 100 µM.
In the case of `Oc1ccccc1/C=N/Nc1ccc2ccccc2n1`, the GI50 was 3.45 µM and the TGI was above 100 µM.
The like results for `COc1ccc(C(=S)N2CCN(c3cccc(Cl)c3)CC2)cc1` were, in that order, 45.4 µM and above 100 µM.
For the compound `CSc1nc(SC)c2c(CN=[N+]=[N-])c(Br)n(Cc3ccccc3)c2n1`, the TGI was above 100 µM.
On the same count and under the same terms, under `Clc1ccccc1C(c1ccccc1)(c1ccccc1)n1ccnc1` stands above 62.7 µM.
Turning to `CCCCCCCCCCCCCC(=S)NCCCC[C@H](NC(=O)OCc1ccccc1)C(=O)Nc1ccccc1`, the GI50 is 3.5 µM and the TGI was above 100 µM.
Take `COc1ccc(C(=O)Nc2ncc(Cc3ccc(Cl)cc3)s2)cc1`: the GI50 is 0.0375 µM.
In the case of `C=C1CCC2C(/C=C(\C)CCC1O)OC(=O)C2C` (configuration not stated), the GI50 is 90.4 µM and the TGI was above 100 µM.
For `CC(C)(C)c1cc(O)c(O)c(C(C)(C)C)c1`, the GI50 was 3.17 µM and the TGI is 7.69 µM.
The corresponding values for `CN1CCN(CC#Cc2cccc(C(=O)c3cnn(-c4ccc(F)cc4)c3N)c2)CC1` are above 25 µM and above 25 µM.
The corresponding values for `COc1cccc(/C=C/C(=O)c2cc3c(N)c(C(=O)Nc4ccccc4C)sc3nc2C)c1` are 1.09 µM and 2.92 µM.
The like results for `COc1ccc(NC(=O)Nc2n[nH]c3ccccc23)cc1` were, in that order, above 100 µM and above 100 µM.

The test system of the next test is SK-MEL-5 melanoma. Put plainly: NCI anticancer screen, dose series, 48 h.
Take `C#Cc1cnc(=O)n(C2CC(O)C(CO)O2)c1` (configuration not stated): the GI50 is above 100 µM and the TGI was above 100 µM.
Turning to `COc1c(C2CC(=O)Nc3c2cnn3Cc2ccco2)cc2c(c1OC)OCO2` (configuration not stated), the GI50 was 0.395 µM and the TGI is 8.38 µM.
The corresponding values for `O=C(c1cccs1)c1c(C(F)(F)F)n([O-])c2ccccc2[n+]1=O` are 0.686 µM and 1.33 µM.
`CC(CO)(CO)N=Cc1cc(I)cc(I)c1O` came in with a TGI of 28.5 µM.
For the compound `CCN1CCN(c2nc(NCCCNc3ccnc4cc(Cl)ccc34)c3ccccc3n2)CC1`, the GI50 is 1.74 µM and the TGI worked out at 3.11 µM.
As for `CC1(C)N=C(N)N=C(N)N1c1ccc(CCCCc2ccc(S(=O)(=O)F)cc2)cc1`, the GI50 was 0.574 µM and the TGI turned out to be 13.4 µM.
The corresponding values for `NC(N)=N/N=C(/c1ccccc1)c1ccc(F)cc1` are 0.316 µM and 4.66 µM.
The corresponding values for `COc1cc(C(=O)NC2c3ccccc3-c3ccccc32)c(N)cc1OCc1ccccc1` are 27.5 µM and above 100 µM.
The corresponding values for `Oc1ccccc1/C=N/Nc1ccc2ccccc2n1` are 4.12 µM and above 100 µM.
As for `COc1ccc(C(=S)N2CCN(c3cccc(Cl)c3)CC2)cc1`, the GI50 was 84.2 µM and the TGI is above 100 µM.
Turning to `CSc1nc(SC)c2c(CN=[N+]=[N-])c(Br)n(Cc3ccccc3)c2n1`, the TGI was above 100 µM.
With `Clc1ccccc1C(c1ccccc1)(c1ccccc1)n1ccnc1`, the GI50 is 2.61 µM; the TGI is 10.4 µM and 22.3 µM.
Regarding `CCCCCCCCCCCCCC(=S)NCCCC[C@H](NC(=O)OCc1ccccc1)C(=O)Nc1ccccc1`, the GI50 was 8.39 µM and the TGI is above 100 µM.
The corresponding values for `COc1ccc(C(=O)Nc2ncc(Cc3ccc(Cl)cc3)s2)cc1` are 0.0419 µM and 2.83 µM.
The corresponding values for `C=C1CCC2C(/C=C(\C)CCC1O)OC(=O)C2C` (configuration not stated) are above 100 µM and above 100 µM.
The corresponding values for `CC(C)(C)c1cc(O)c(O)c(C(C)(C)C)c1` are 4.68 µM and 15.8 µM.
In the case of `CN1CCN(CC#Cc2cccc(C(=O)c3cnn(-c4ccc(F)cc4)c3N)c2)CC1`, the GI50 is above 25 µM and the TGI was above 25 µM.
As to `COc1cccc(/C=C/C(=O)c2cc3c(N)c(C(=O)Nc4ccccc4C)sc3nc2C)c1`, the GI50 is 1.44 µM and the TGI stood at 4.56 µM.
The corresponding values for `COc1ccc(NC(=O)Nc2n[nH]c3ccccc23)cc1` are above 100 µM and above 100 µM.
